# Source: PMC8597046, “Use of Mixture Dosing and Nonlinear Mixed Effect Modeling of Eight Environmental Contaminants in Rabbits to Improve Extrapolation Value of Toxicokinetic Data” (Environmental Health Perspectives, 2021)
# Where two headings read alike, the source gives them in different places.
# Columns and labels:
# in vivo [1] = settings: female, rabbit, in vivo, po
# Procedure, shortened: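 Female New Zealand white rabbits (10-wk, 2.37±0.14kg) got the compound mixture IV via ear-vein catheter or orally into the mouth; serum sampled 15 min to 28 d, 3 (or 6 at 30 min) rabbits per time. Sparse-data noncompartmental analysis gave AUC (linear trapezoidal), CL or CL_F, half-life and F.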
# in vivo [2] = settings: for tvK12 (distribution rate constant) / tvK21 (distribution rate constant) / tvVc (volume of the central compartment) / tvKabs (rate constant of absorption): population primary parameter, typical value; for tvKabs (rate constant of absorption): MEHP after oral DEHP; for Volume(s) of the peripheral compartment: for PFOA first peripheral compartment
# Procedure, shortened: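 Rabbit serum concentrations after IV and oral dosing fitted jointly by NLME compartmental modeling (−2LL minimization, Laplacian or QRPEM), exponential between-subject variability, combined additive/proportional error. CL, V2, Q, VZ, AUC (Dose/CL) and terminal half-life derived from population primary parameters.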
# [3] = rabbit, in vivo; cited from earlier work
# [4] = rodents; ref Kudo and Kawashima 2003; cited from earlier work
# [5] = New Zealand white (INRA 1777 line)
# [6] = New Zealand white (INRA 1777 line), Serum concentration
# [7] = New Zealand white, Serum concentration
# [8] = female, New Zealand white (INRA 1777 line), rabbit, in vivo
# [9] = female, New Zealand white, rabbit, in vivo
# [10] = female, New Zealand white, rabbit, in vivo, iv
# [11] = female, New Zealand white, rabbit, in vivo, po
# [12] = population secondary parameter, mean
compound,measurement,setting,value
"Clc1c(Cl)c(Cl)c(Cl)c(Cl)c1Cl [HCB, hexachlorobenzene]",AUC(0-inf),in vivo [1]; [5],340 µM·h
same,CL/F,in vivo [1]; [5],1.33 mL/min/kg
same,Cmax,in vivo [1]; [5],0.505 µM
same,MRT,in vivo [1]; [5],46.5 days
same,Tmax,in vivo [1]; [5],24 h
same,Vd/F,in vivo [1]; [5],95 L/kg
same,bioavailability,in vivo [1]; [5],64%
same,half-life,in vivo [1]; [5],34 days
same,Serum concentration,"in vivo [1]; New Zealand white (INRA 1777 line), 24 h",0.37 µmol/L
same,concentration at 0.57 h,in vivo [1]; [6],66 nM
same,concentration at 23.98 h,in vivo [1]; [6],370 nM
same,concentration at 24 h,in vivo [1]; [6],640 nM
same,concentration at 168 h,in vivo [1]; [6],290 nM
same,concentration at 671.96 h,in vivo [1]; [6],160 nM
same,Serum concentration,"in vivo [1]; New Zealand white, 72 h",0.40 µmol/L
same,concentration at 71.96 h,in vivo [1]; [7],490 nM
same,concentration at 72 h,in vivo [1]; [7],220 nM
same,concentration at 168 h,in vivo [1]; [7],240 nM
same,concentration at 168.02 h,in vivo [1]; [7],240 nM
same,VSS,in vivo [2]; [8],33 to 45 L/kg
same,Vd,in vivo [2]; [8],35 L/kg
same,k el,in vivo [2]; [8],9.74e-07 s⁻¹
same,tvf (ilogit of the oral bioavailability),"in vivo [2]; female, New Zealand white (INRA 1777 line), rabbit, in vivo, po",0.03625
same,bioavailability,"in vivo [2]; female, New Zealand white (INRA 1777 line), rabbit, in vivo, po, Oral bioavailability (F)",~50%
same,Clearance,in vivo [2]; [9],0.05 to 0.34 L/kg/h
same,Clearance(s) of distribution,in vivo [2]; [9],0.78 L/kg/h
same,clearance,in vivo [2]; [9],0.85 mL/min/kg
same,half-life,in vivo [2]; [9],20 days
same,MRT,"in vivo [2]; female, New Zealand white, rabbit, in vivo, MRT",> 800 h
same,AUC,in vivo [2]; [10],4.5 µM·h
same,AUC,in vivo [2]; [11],271 µM·h
same,bioavailability,"in vivo [2]; female, New Zealand white, rabbit, in vivo, po, Bioavailability",51%
same,tvK12 (distribution rate constant),in vivo [2]; mean,0.05299 h⁻¹
same,tvK21 (distribution rate constant),in vivo [2]; mean,0.03851 h⁻¹
same,tvVc (volume of the central compartment),in vivo [2]; mean,14.63 L/kg
same,tvKabs (rate constant of absorption),in vivo [2]; mean,0.3488 h⁻¹
same,Volume(s) of the peripheral compartment,in vivo [2]; [12],20 L/kg
same,half-life,[3],32 days
"O=C(O)C(F)(F)C(F)(F)C(F)(F)C(F)(F)C(F)(F)C(F)(F)C(F)(F)F [PFOA, perfluorooctanoic acid]",AUC(0-inf),in vivo [1]; [5],169 µM·h
same,CL/F,in vivo [1]; [5],0.0953 mL/min/kg
same,Cmax,in vivo [1]; [5],9.07 µM
same,MRT,in vivo [1]; [5],1.08 days
same,Tmax,in vivo [1]; [5],4.05 h
same,Vd/F,in vivo [1]; [5],0.64 L/kg
same,bioavailability,in vivo [1]; [5],> 100%
same,half-life,in vivo [1]; [5],3.23 days
same,concentration at 4.3 h,"in vivo [1]; New Zealand white (INRA 1777 line), Serum concentration, oral, rabbit 13, 4.30 h, MEHP after oral DEHP",6.04 µM
same,concentration at 24 h,"in vivo [1]; New Zealand white (INRA 1777 line), Serum concentration, oral, rabbit 13, […], MEHP after oral DEHP",2510 nM
same,concentration at 0.37 h,"in vivo [1]; New Zealand white (INRA 1777 line), Serum concentration, oral, rabbit 14, 0.37 h, MEHP after oral DEHP",4.79 µM
same,concentration at 4.17 h,"in vivo [1]; New Zealand white (INRA 1777 line), Serum concentration, oral, rabbit 14, 4.17 h, MEHP after oral DEHP",6.7 µM
same,concentration at 24 h,"in vivo [1]; New Zealand white (INRA 1777 line), Serum concentration, oral, rabbit 14, […], MEHP after oral DEHP",1530 nM
same,concentration at 4.05 h,"in vivo [1]; New Zealand white (INRA 1777 line), Serum concentration, oral, rabbit 15, 4.05 h, MEHP after oral DEHP",9.07 µM
same,concentration at 23.98 h,"in vivo [1]; New Zealand white (INRA 1777 line), Serum concentration, oral, rabbit 15, 23.98 h, MEHP after oral DEHP",2340 nM
same,concentration at 12 h,"in vivo [1]; New Zealand white (INRA 1777 line), Serum concentration, oral, rabbit 21, 12.00 h, MEHP after oral DEHP",3.94 µM
same,concentration at 168 h,"in vivo [1]; New Zealand white (INRA 1777 line), Serum concentration, rabbit 21, 168.00 h",9.3 nM
same,concentration at 672.02 h,"in vivo [1]; New Zealand white (INRA 1777 line), Serum concentration, rabbit 22, 672.02 h",0.5 nM
same,concentration at 671.96 h,"in vivo [1]; New Zealand white (INRA 1777 line), Serum concentration, rabbit 23, 671.96 h",0.26 nM
same,concentration at 672.02 h,"in vivo [1]; New Zealand white (INRA 1777 line), Serum concentration, rabbit 24, 672.02 h",0.49 nM
same,concentration at 0.55 h,"in vivo [1]; New Zealand white, Serum concentration, oral, rabbit 16, 0.55 h, MEHP after oral DEHP",2.52 µM
same,concentration at 72 h,"in vivo [1]; New Zealand white, Serum concentration, oral, rabbit 16, 72.00 h, MEHP after oral DEHP",110 nM
same,concentration at 0.53 h,"in vivo [1]; New Zealand white, Serum concentration, oral, rabbit 17, 0.53 h, MEHP after oral DEHP",2350 nM
same,concentration at 72 h,"in vivo [1]; New Zealand white, Serum concentration, oral, rabbit 17, 72.00 h, MEHP after oral DEHP",230 nM
same,concentration at 0.55 h,"in vivo [1]; New Zealand white, Serum concentration, oral, rabbit 18, 0.55 h, MEHP after oral DEHP",4.2 µM
same,concentration at 71.96 h,"in vivo [1]; New Zealand white, Serum concentration, oral, rabbit 18, 71.96 h, MEHP after oral DEHP",78 nM
same,concentration at 12 h,"in vivo [1]; New Zealand white, Serum concentration, oral, rabbit 19, 12.00 h, MEHP after oral DEHP",4.88 µM
same,concentration at 12 h,"in vivo [1]; New Zealand white, Serum concentration, oral, rabbit 20, 12.00 h, MEHP after oral DEHP",3.2 µM
same,concentration at 168.02 h,"in vivo [1]; New Zealand white, Serum concentration, rabbit 19, 168.02 h",32 nM
same,concentration at 168 h,"in vivo [1]; New Zealand white, Serum concentration, rabbit 20, 168.00 h",5 nM
same,tvK13 (distribution rate constant),in vivo [2]; PFOA 3-compartments model,0.0039 h⁻¹
same,tvK31 (distribution rate constant),in vivo [2]; PFOA 3-compartments model,0.0080 h⁻¹
same,"Volume(s) of the peripheral compartment, second value","in vivo [2]; PFOA three-compartment model, second peripheral compartment",0.049 L/kg
same,Vd,in vivo [2]; [8],0.19 L/kg
same,k el,in vivo [2]; [8],2.08e-05 s⁻¹
same,bioavailability,"in vivo [2]; female, New Zealand white (INRA 1777 line), rabbit, in vivo, po, Oral bioavailability (F), NLME model",100%
same,MRT,in vivo [2]; [9],25 h
same,half-life,in vivo [2]; [9],3.83 days
same,clearance,"in vivo [2]; female, New Zealand white, rabbit, in vivo, Clearance, population secondary parameter, mean",< 0.167 mL/min/kg
same,AUC,in vivo [2]; [10],26 µM·h
same,AUC,in vivo [2]; [11],128 µM·h
same,bioavailability,"in vivo [2]; female, New Zealand white, rabbit, in vivo, po, Bioavailability, population secondary parameter, mean, as fraction",100%
same,AUCVO/dose,in vivo [2]; oral dosing,133 μmol×h/L per μmol/kg BW
same,tvK12 (distribution rate constant),in vivo [2]; mean,0.047 h⁻¹
same,tvK21 (distribution rate constant),in vivo [2]; mean,0.127 h⁻¹
same,tvVc (volume of the central compartment),in vivo [2]; mean,0.101 L/kg
same,tvKabs (rate constant of absorption),in vivo [2]; mean,1.408 h⁻¹
same,Volume(s) of the peripheral compartment,in vivo [2]; [12],0.037 L/kg
same,Intestinal absorption,[4],93%
